ChEMBL document CHEMBL1141517 (Bioorg Med Chem Lett, 2008)

Legend:
Oryctolagus cuniculus = species on record: Oryctolagus cuniculus; assay: Ratio of Km of fructose bis-phosphate for rabbit Fba to Ki of compound for rabbit Fba
[1] = Inhibition of yeast Fba; set-up: species or system Saccharomyces cerevisiae
Helicobacter pylori = assay: Ratio of Km of fructose bis-phosphate for Helicobacter pyroli recombinant Fba to Ki of compound for Helicobacter pyroli recombinant Fba
[2] = Inhibition of Helicobacter pyroli recombinant Fba expressed in Escherichia coli JM 109; set-up: species or system Helicobacter pylori
Saccharomyces cerevisiae = assay: Ratio of Km of fructose bis-phosphate for yeast Fba to Ki of compound for yeast Fba
[3] = Inhibition of rabbit muscle Fba; set-up: species or system Oryctolagus cuniculus

SMILES	Ratio (Oryctolagus cuniculus)	Ki [1] [µM]	Ratio (Helicobacter pylori)	Ki [2] [µM]	Ratio (Saccharomyces cerevisiae)	Ki [3] [µM]
O=P(O)(O)OC[C@@H](O)[C@@H](O)[C@H](O)[C@H](O)COP(=O)(O)O	2.74	0.4	0.27	0.073	0.5	7.3
O=P(O)(O)OC[C@@H](O)[C@@H](O)[C@H](O)[C@@H](O)COP(=O)(O)O	0.2	0.06	0.12	0.17	3.33	100
